The subject of one test is DU145 (prostate cancer). As to the kind of experiment: Cytotoxicity assay, DU145 tumor cells. The settings on record: Homo sapiens, DU-145, 96 h treatment. It is filed as cell-based. On the procedure: (§1) The effect of the compounds of the invention on tumor cells was determined by the assay described by Latham et al., Oncogene 12:827-837 (1996). Tumor cells K562 (chronic myelogenous leukemia; leukemia cell line +ve for Bcr-Abl) or DU145 (prostate cancer) were plated in 12-well dishes at a cell density of 2.5×10^4 cells well. The plated cells were treated 24 hours later with a compound of the invention dissolved in DMSO at multiple concentrations ranging from 0.01 μM to 100 μM. The plates were examined 96 hours later under an inverted microscope, Olympus CK-2 using a 10× objective, and compound activity was noted by physical observation. When necessary, the total number of viable cells was determined by trypsinizing the wells and counting the number of viable cells, as determined by trypan blue exclusion, using a hemacytometer. Where “Lower” and “Upper” value are provided in Table 5, the IC50 was determined to be within that range. When only a “Lower” value is provided and no “Upper” value is listed, the IC50 was that value, or less than or greater than that value, as set forth in the Table.
(§2) The cytotoxicity of Compound 42, (Z)-6-((2,6-dichlorobenzyl)sulfonyl)-2-(4-hydroxy-3-nitrobenzylidene)-2H-benzo[b][1,4]thiazin-3(4H)-one, was determined according the assay method of Example 7 on the prostate (androgen dependent or independent), breast and pancreatic cancer cell lines listed in Table 6A, below, and the additional cell lines listed in Table 6B, below. The human mesenchymal stem cell line HMSC.hTERT and normal human fibroblast cell line HFL was included in the test.

Test [1] deals with K562 (chronic myelogenous leukemia; leukemia cell line +ve for Bcr-Abl). As to the kind of experiment: Cytotoxicity assay, K562 tumor cells. The settings on record: Homo sapiens, K562, 96 h treatment. The test is classed as cell-based. The procedure:
as §1, §2

The mark [2] stands for this setting: lower limit of the IC50 range, or the IC50 itself (or its bound) where no Upper value is listed, read-out: DU145 IC50 (μm) Lower (μm).
Setting [3] is: upper limit of the IC50 range, read-out: DU145 IC50 (μm) Upper (μm).
The mark [4] stands for this setting: lower limit of the IC50 range, or the IC50 itself (or its bound) where no Upper value is listed, read-out: K562 IC50 (μm) Lower (μm).
[5] abbreviates: upper limit of the IC50 range, read-out: K562 IC50 (μm) Upper (μm).

Among the data in patent publication US9242945B2, “Substituted 2-benzylidene-2H-benzo[b][1,4]thiazin-3(4H)-ones, derivatives thereof, and therapeutic uses thereof” (TEMPLE UNIVERSITY—OF THE COMMONWEALTH SYSTEM OF HIGHER …, priority 2011, dated 2016) are IC50 values, retold here.

The term IC50 denotes the concentration that inhibits the measured activity by half.

Where two headings read alike, the source gives them in different places.

On to `O=C1Nc2cc(S(=O)(=O)Cc3c(Cl)cccc3Cl)ccc2S/C1=C\c1ccc(F)cc1F` [Compound 30, (Z)-6-((2,6-dichlorobenzyl)sulfonyl)-2-(2,4-difluorobenzylidene)-2H-benzo[b][1,4]thiazin-3(4H)-one], for which the half-maximal inhibitory concentration (IC50) with DU145 (prostate cancer) (setting [2]) is at least 1000 nM; in the test on DU145 (prostate cancer) (setting [3]) it was at most 10000 nM; in test [1] (setting [4]), at least 1000 nM; in test [1] (setting [5]), at most 10000 nM.
As for `O=C1Nc2cc(S(=O)(=O)Cc3c(Cl)cccc3Cl)ccc2S/C1=C\c1c(F)cc(F)cc1F` [Compound 31, (Z)-6-((2,6-dichlorobenzyl)sulfonyl)-2-(2,4,6-trifluorobenzylidene)-2H-benzo[b][1,4]thiazin-3(4H)-one], the IC50 in the test with DU145 (prostate cancer) (setting [2]) was at least 1000 nM; with DU145 (prostate cancer) (setting [3]), at most 10000 nM; in test [1] (setting [4]), at least 1000 nM; in test [1] (setting [5]) it was at most 10000 nM.
As for `COC(=O)c1ccc(/C=C2\Sc3ccc(S(=O)(=O)Cc4c(Cl)cccc4Cl)cc3NC2=O)cc1` [Compound 32, (Z)-methyl 4-((6-((2,6-dichlorobenzyl)sulfonyl)-3-oxo-3,4-dihydro-2H-benzo[b][1,4]thiazin-2-ylidene)methyl)benzoate], the IC50 in the test with DU145 (prostate cancer) (setting [2]) is at least 500 nM; with DU145 (prostate cancer) (setting [3]) it was at most 1000 nM; in test [1] (setting [4]), at least 1000 nM; in test [1] (setting [5]), at most 10000 nM.
`O=C1Nc2cc(S(=O)(=O)Cc3c(Cl)cccc3Cl)ccc2S/C1=C\c1cccs1` [Compound 33, (Z)-6-((2,6-dichlorobenzyl)sulfonyl)-2-(thiophen-2-ylmethylene)-2H-benzo[b][1,4]thiazin-3(4H)-one]: the IC50 was at least 500 nM in the test with DU145 (prostate cancer) (setting [2]), at most 1000 nM in the test on DU145 (prostate cancer) (setting [3]), at least 500 nM in test [1] (setting [4]) and at most 1000 nM in test [1] (setting [5]).
Turning to `COC(=O)c1ccc(/C=C2\Sc3ccc(S(=O)(=O)Cc4c(Cl)cccc4Cl)cc3NC2=O)c([N+](=O)[O-])c1` [Compound 35, (Z)-methyl 4-((6-((2,6-dichlorobenzyl)sulfonyl)-3-oxo-3,4-dihydro-2H-benzo[b][1,4]thiazin-2-ylidene)methyl)-3-nitrobenzoate], the IC50 in the test on DU145 (prostate cancer) (setting [2]) is above 10000 nM; in test [1] (setting [4]) it was at least 1000 nM; in test [1] (setting [5]) it was at most 10000 nM.
Turning to `CSc1nccc(/C=C2\Sc3ccc(S(=O)(=O)Cc4c(Cl)cccc4Cl)cc3NC2=O)n1` [Compound 36, (Z)-6-((2,6-dichlorobenzyl)sulfonyl)-2-((2-(methylthio)pyrimidin-4-yl)methylene)-2H-benzo[b][1,4]thiazin-3(4H)-one], the values for the IC50 (with DU145 (prostate cancer) (setting [2]); in test [1] (setting [4])) were 2000 nM and above 2500 nM, respectively.
For the compound `O=C1Nc2cc(S(=O)(=O)Cc3c(Cl)cccc3Cl)ccc2S/C1=C\c1ccnc(N2CCOCC2)n1` [Compound 37, (Z)-6-((2,6-dichlorobenzyl)sulfonyl)-2-((2-morpholinopyrimidin-4-yl)methylene)-2H-benzo[b][1,4]thiazin-3(4H)-one], the IC50 in the test with DU145 (prostate cancer) (setting [2]) was at least 1000 nM; with DU145 (prostate cancer) (setting [3]), at most 10000 nM; in test [1] (setting [4]), at least 1000 nM; in test [1] (setting [5]), at most 10000 nM.
`Cc1ccc(S(=O)(=O)Oc2ccc(/C=C3\Sc4ccc(S(=O)(=O)Cc5c(Cl)cccc5Cl)cc4NC3=O)cc2[N+](=O)[O-])cc1` [Compound 38, (Z)-4-((6-((2,6-dichlorobenzyl)sulfonyl)-3-oxo-3,4-dihydro-2H-benzo[b][1,4]thiazin-2-ylidene)methyl)-2-nitrophenyl 4-methylbenzenesulfonate]: the IC50 in the test on DU145 (prostate cancer) (setting [2]) was found to be 90 nM; in test [1] (setting [4]), 100 nM.
As to `O=C1Nc2cc(S(=O)(=O)Cc3c(Cl)cccc3Cl)ccc2S/C1=C\c1ccc(-c2nn[nH]n2)cc1` [Compound 39, (Z)-2-(4-(2H-tetrazol-5-yl)benzylidene)-6-((2,6-dichlorobenzyl)sulfonyl)-2H-benzo[b][1,4]thiazin-3(4H)-one], the IC50 is at least 1000 nM with DU145 (prostate cancer) (setting [2]), at most 10000 nM with DU145 (prostate cancer) (setting [3]), at least 1000 nM in test [1] (setting [4]) and at most 10000 nM in test [1] (setting [5]).
Turning to `COc1ccc2c(c1)S/C(=C\c1ccc(OC(C)=O)c([N+](=O)[O-])c1)C(=O)N2C(C)=O` [Compound 40, (Z)-4-((4-acetyl-7-methoxy-3-oxo-3,4-dihydro-2H-benzo[b][1,4]thiazin-2-ylidene)methyl)-2-nitrophenyl acetate], the IC50 came out at 2000 nM in the test on DU145 (prostate cancer) (setting [2]) and 1500 nM in test [1] (setting [4]).
For `O=C1Nc2cc(S(=O)(=O)Cc3c(Cl)cccc3Cl)ccc2S/C1=C\c1ccc(OCc2ccccc2)c([N+](=O)[O-])c1` [Compound 41, (Z)-2-(4-(benzyloxy)-3-nitrobenzylidene)-6-((2,6-dichlorobenzyl)sulfonyl)-2H-benzo[b][1,4]thiazin-3(4H)-one], the results for the IC50 (with DU145 (prostate cancer) (setting [2]); in test [1] (setting [4])) were 1500 nM and 750 nM, respectively.
On the same counts, the results for `O=C1Nc2ccc(F)cc2S/C1=C\c1ccc(OCc2ccccc2)c([N+](=O)[O-])c1` [Compound 43, (Z)-2-(4-(benzyloxy)-3-nitrobenzylidene)-7-fluoro-2H-benzo[b][1,4]thiazin-3(4H)-one] are above 10000 nM and above 10000 nM.
As for `O=C1Nc2ccc(F)cc2S/C1=C\c1ccc(O)c([N+](=O)[O-])c1` [Compound 44, (Z)-7-fluoro-2-(4-hydroxy-3-nitrobenzylidene)-2H-benzo[b][1,4]thiazin-3(4H)-one], the results for the IC50 (with DU145 (prostate cancer) (setting [2]); in test [1] (setting [4])) were 750 nM and 250 nM, respectively.
